Where two headings read alike, the source gives them in different places.
Experiments:
[1] = Log D (octanol / phosphate buffer pH 7.4); format: physicochemical; settings: for logD at 1 h: octanol/potassium phosphate buffer, pH 7.4, octanol / potassium phosphate buffer pH 7.4
Protocol: 10 μL of 10 mM stock solutions was placed into a 96-well plate, and 300 μL of octanol was subsequently added. The plate was sealed and agitated on a plate shaker for 5 minutes, followed by centrifugation at 2000 rpm for 5 minutes. The seal was removed and 600 μL of potassium phosphate buffer (pH 7.4) was added. The plate was sealed and the two phases were mixed by shaking vigorously on a plate shaker for 1 hour at 25° C. The plate was then centrifuged for 2000 rpm for 5 minutes and the seal was removed. 10 μL of water was aspirated out of the water phase samples from the water phase plate and mixed with 10 μL of water (1:2 dilution). 180 μL of 50% Ethanol was added into the water phase sample plate (1:10 dilution) to achieve a 1:20 dilution. 50 μL of water phase samples were then mixed with 100 μL of 50% Ethanol (containing IS) into the water phase sample plate to achieve a 1:60 dilution. 10 μL from the octanol phase (the upper phase) was transferred into a new 96-well plate and 190 μL of 50% Ethanol was added (1:20 dilution). 10 μL of the 1:20 diluted octanol samples was transferred into a new 96 deep-well plate and 390 μL of 50% Ethanol (1:40 dilution) was added to achieve a 1:800 dilution. 50 μL of the 1:800 diluted octanol samples were transferred into a new 96-well plate and 100 μL of 50% Ethanol with IS was added to achieve a 1:2400 dilution. The samples were subsequently analyzed with LCMS.

Mouse colon distribution = format: in vivo; settings: colon / plasma, read-out: Colon/Plasma Ratio at 12 h
TYK2-JH2 = biological target: T1, TYK2-JH2 (Homo sapiens, UniProt P29597); assay: TYK2-JH2 HTRF binding assay (ligand efficiency); settings: calculated from binding-assay IC50 (Equation 1)
T1 construct: TYK JH2 enzyme mix (ChemPartner: CP20210818A-BV); purchased ChemPartner CP20210818A-BV
Summary of the method: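 HTRF competition binding: 0.5 nM His-tagged TYK2 JH2 preincubated 10 min at room temperature with compound (final 0.1 to 0.000005 μM), then 35 nM tracer and anti-6HIS Tb cryptate added for 60 min. Buffer 20 mM HEPES pH 7.5, 10 mM MgCl2, 0.01% Triton X-100, 1 mM DTT; TR-FRET Ex340/Em495/520. Ligand efficiency derived from binding IC50.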

[2] = Brain exposure pharmacokinetics in rats; format: in vivo; settings: male Sprague Dawley rats, oral gavage 10 mg/kg
Protocol: The brain exposure of exemplary compounds, e.g., 1, 2, and 4 were evaluated in male Sprague Dawley rats after oral gavage administration at 10 mg/kg. The formulation was 5% DMSO+10% PEG400 in saline. Rats were fasted overnight with food returned 4 hours post-dose. CSF was collected by direct needle puncture into the cisterna magna.
For both rat and mouse studies, brain tissue was washed with 3 volumes of saline prior to homogenization. Brain tissue was homogenized with 3 volumes (v/w) of phosphate buffered saline. Plasma, brain homogenate, and CSF samples (rat only) were analyzed by LC-MS/MS and the concentration of test compound at each time point was determined by linear regression.
Pharmacokinetic parameters were calculated from the plasma, brain, and CSF concentrations by non-compartmental modeling using WinNonlin 8.2.

[3] = test system: anti-CD40-induced inflammatory bowel disease (IBD); assay: Anti-CD40-induced mouse model of inflammatory bowel disease (IBD); format: in vivo, RAGN12 mice; settings: for colon histopathology scores / colon weight-to-length ratio: 7-day anti-CD40 IBD model
Protocol: This study was conducted in accordance with the Inotiv Boulder test facility standard operating procedures (SOPs), the World Health Organization Quality Practices in Basic Biomedical Research guidelines, and in compliance with all state and federal regulations, including USDA Animal Welfare Act 9 CFR Parts 1-3. Federal Register 39129, Jul. 22, 1993. This study was conducted in accordance with The Guide for the Care & Use of Laboratory Animals (8th Edition) and therefore in accordance with all Inotiv Boulder IACUC approved policies.
Prior to the start of the study, 6-7 week old, RAGN12 mice (Taconics) were acclimated for approximately 4 days. On study day −1, mice were weighed and randomized into treatment groups based on body weight. On study day 0, 200 μg of anti-CD40 monoclonal antibody (BioXcell) was administered intraperitoneally to induce disease. Test articles were dosed orally BID (the exception was the known TYK2 inhibitor at 3 mpk, which was dosed QD, with vehicle administered as the second daily dose). Bodyweight was measured daily on study days 1-6.
On day 7, the study was terminated; mice were anesthetized with Isoflurane and bled to exsanguination followed by cervical dislocation. The entire colon was removed, measured, and weighed. The plasma (for PK) and colon (for histology and cytokine measurements) samples were collected. Histopathology samples were evaluated for edema, inflammation (extent of macrophage, lymphocyte and polymorphonuclear (PMN) cell infiltration), gland loss, erosion, and hyperplasia.
Overall efficacy of test articles is based on a ratio of colon weight to length, and colon histopathology (FIGS. 6A and 6B). Additional readouts of the model support activity of an exemplary compound in IBD (FIG. 6C-6I).

T1 sequence (P29597 589-875 limits assumed): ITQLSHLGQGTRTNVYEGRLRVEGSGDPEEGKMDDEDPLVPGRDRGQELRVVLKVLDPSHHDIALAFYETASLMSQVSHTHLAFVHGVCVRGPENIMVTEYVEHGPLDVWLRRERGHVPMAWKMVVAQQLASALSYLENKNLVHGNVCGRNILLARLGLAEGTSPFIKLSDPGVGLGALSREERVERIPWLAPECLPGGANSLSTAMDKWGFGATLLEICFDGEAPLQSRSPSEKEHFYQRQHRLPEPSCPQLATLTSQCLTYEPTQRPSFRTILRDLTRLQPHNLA

SMILES	logD at 1 h [1]	Kp at 12 h (Mouse colon distribution; PO 10 mg/kg)	Kp at 12 h (Mouse colon distribution; PO 50 mg/kg)	Kp at 12 h (Mouse colon distribution; PO 200 mg/kg)	Ligand Efficiency (TYK2-JH2)	Brain Kpu, u [2]	colon histopathology scores [3]	colon weight-to-length ratio [3]	LogD ([1]; octanol / potassium phosphate buffer pH 7.4)	colon weight:length, efficacious dose ([3]; anti-CD40 IBD model) [mpk]
C[C@@H](c1ccc(Nc2cc(Nc3ncc(F)cc3S(C)(=O)=O)ncn2)nc1)N1CC2(COC2)C1 [Compound 2, (S)—N^4-(5-(1-(2-oxa-6-azaspiro[3.3]heptan-6-yl)ethyl)pyridin-2-yl)-N^6-(5-fluoro-3-(methylsulfonyl)pyridin-2-yl)pyrimidine-4,6-diamine]	~1.6	24	13	7.4	††† (†††: >0.39)	† († <0.1 u)	inhibition	inhibition		
C[C@@H](c1ccc(Nc2cc(Nc3ncccc3S(C)(=O)=O)ncn2)nc1)N1CC2(COC2)C1 [Compound 1, (S)—N^4-(5-(1-(2-oxa-6-azaspiro[3.3]heptan-6-yl)ethyl)pyridin-2-yl)-N^6-(3-(methylsulfonyl)pyridin-2-yl)pyrimidine-4,6-diamine]	~1.3	50	33	25	††† (†††: >0.39)	†† (†† 0.1-0.2 u)	inhibition	inhibition	1.33	200

From patent US20260048051A1, “TREATMENT OF INFLAMMATORY BOWEL DISEASE” (Atomwise Inc., priority 2024, published 2026)
